Test results published in ChEMBL document CHEMBL1129591 (J Med Chem, 1996).

Experiments:
[1] = biological target: T1, 5-hydroxytryptamine receptor 1A (Homo sapiens, UniProt P08908); assay: Ability to inhibit the forskolin-stimulated c-AMP formation mediated by human 5-hydroxytryptamine 1A receptor in CHO-K1 cells; assay type: functional, cell-based
T1 sequence (P08908 whole entry): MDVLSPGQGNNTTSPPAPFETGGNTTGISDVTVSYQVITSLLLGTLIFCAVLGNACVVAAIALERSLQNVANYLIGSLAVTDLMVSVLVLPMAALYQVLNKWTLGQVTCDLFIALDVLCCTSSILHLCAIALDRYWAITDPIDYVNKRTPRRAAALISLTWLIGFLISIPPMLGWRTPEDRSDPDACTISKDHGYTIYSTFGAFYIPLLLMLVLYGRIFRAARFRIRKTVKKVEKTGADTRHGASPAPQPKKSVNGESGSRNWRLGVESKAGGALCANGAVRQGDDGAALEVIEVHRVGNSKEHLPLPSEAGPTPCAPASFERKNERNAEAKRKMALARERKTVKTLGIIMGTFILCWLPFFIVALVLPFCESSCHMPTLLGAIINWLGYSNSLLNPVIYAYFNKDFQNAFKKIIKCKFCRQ

[2] = biological target: T2, 5-hydroxytryptamine receptor 1B (Homo sapiens, UniProt P28222); assay: Ability to inhibit the forskolin-stimulated c-AMP formation mediated by human 5-hydroxytryptamine 1B receptor in CHO-K1 cells; assay type: functional, cell-based
[3] = biological target: T2, 5-hydroxytryptamine receptor 1B; assay: Inhibition of forskolin-stimulated c-AMP formation by human 5-hydroxytryptamine 1B receptor expressed in CHO-K1 cells; assay type: functional, cell-based
[4] = biological target: 5-hydroxytryptamine receptor 1D (Homo sapiens, UniProt P28221); assay: Binding affinity at cloned human 5-hydroxytryptamine 1D receptor
Chain of 5-hydroxytryptamine receptor 1D (P28221 whole entry): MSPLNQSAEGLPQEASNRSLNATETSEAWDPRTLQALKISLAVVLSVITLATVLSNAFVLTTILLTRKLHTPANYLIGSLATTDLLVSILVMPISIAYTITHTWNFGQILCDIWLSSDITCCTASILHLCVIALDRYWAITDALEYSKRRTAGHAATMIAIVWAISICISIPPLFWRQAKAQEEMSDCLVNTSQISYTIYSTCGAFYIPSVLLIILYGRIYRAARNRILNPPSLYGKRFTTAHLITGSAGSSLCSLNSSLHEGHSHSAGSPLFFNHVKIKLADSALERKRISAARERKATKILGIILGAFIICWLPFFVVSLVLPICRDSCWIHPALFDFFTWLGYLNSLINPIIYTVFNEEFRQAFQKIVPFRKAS

T2 sequence (P28222 whole entry): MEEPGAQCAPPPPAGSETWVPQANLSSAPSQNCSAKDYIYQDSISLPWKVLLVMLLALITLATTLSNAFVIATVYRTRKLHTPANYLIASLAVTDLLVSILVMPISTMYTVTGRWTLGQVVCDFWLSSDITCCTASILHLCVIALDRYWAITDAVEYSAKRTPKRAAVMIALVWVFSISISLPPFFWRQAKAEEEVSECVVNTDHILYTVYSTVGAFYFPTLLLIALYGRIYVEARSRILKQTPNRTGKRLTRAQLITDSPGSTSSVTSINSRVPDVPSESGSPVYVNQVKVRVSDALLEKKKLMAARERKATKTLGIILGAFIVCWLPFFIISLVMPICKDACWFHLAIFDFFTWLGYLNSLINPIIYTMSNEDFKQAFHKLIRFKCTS

Row | Ki [1] | Ki [2] | EC50 [3] | Ki [4] | Compound
1 | 1.6 nM | 0.1 nM | 3 nM | 0.11 nM | NCCc1c[nH]c2ccc(OCc3ccc(COc4ccc5[nH]cc(CCN)c5c4)cc3)cc12
2 | 9.5 nM | 0.26 nM | 0.19 nM | 0.35 nM | NCCc1c[nH]c2ccc(OCCN3CCN(CCOc4ccc5[nH]cc(CCN)c5c4)CC3)cc12
3 | 8.6 nM | 0.3 nM | 0.09 nM | 0.3 nM | NCCc1c[nH]c2ccc(OCC(=O)NCCCNC(=O)COc3ccc4[nH]cc(CCN)c4c3)cc12
4 | 20 nM | 0.36 nM | 0.28 nM | 0.42 nM | NCCc1c[nH]c2ccc(OCC(=O)N3CCN(C(=O)COc4ccc5[nH]cc(CCN)c5c4)CC3)cc12
5 | 2.2 nM | 0.2 nM | 1.6 nM | 0.4 nM | NCCc1c[nH]c2ccc(OCCNC(=O)NCCOc3ccc4[nH]cc(CCN)c4c3)cc12
6 | 1 nM | 0.32 nM | 0.85 nM | 0.35 nM | NCCc1c[nH]c2ccc(OCc3cccc(COc4ccc5[nH]cc(CCN)c5c4)c3)cc12
7 | 1.66 nM | 0.38 nM | 0.1 nM | 0.45 nM | NCCc1c[nH]c2ccc(OCCCCCCNS(=O)(=O)c3ccc(-c4ccc(S(=O)(=O)NCCCCCCOc5ccc6[nH]cc(CCN)c6c5)cc4)cc3)cc12
8 | 4.06 nM | 0.27 nM | 0.3 nM | 0.11 nM | NCCc1c[nH]c2ccc(OCC(=O)Nc3ccc(NC(=O)COc4ccc5[nH]cc(CCN)c5c4)cc3)cc12
9 | 4 nM | 0.22 nM | 0.26 nM | 0.27 nM | NCCc1c[nH]c2ccc(OCC(=O)N3CCC(C4CCN(C(=O)COc5ccc6[nH]cc(CCN)c6c5)CC4)CC3)cc12

Row | Compound | Ki [1] | Ki [2] | EC50 [3] | Ki [4]
10 | NCCc1c[nH]c2ccc(OCC(=O)N3CCNCC3)cc12 | > 100 nM | > 100 nM |  | > 100 nM
11 | NCCc1c[nH]c2ccc(OCCN3CCN(C(=O)COc4ccc5[nH]cc(CCN)c5c4)CC3)cc12 | 9.5 nM | 0.11 nM | 0.22 nM | 0.16 nM
12 | NCCc1c[nH]c2ccc(OCCNC(=O)COc3ccc4[nH]cc(CCN)c4c3)cc12 | 2.2 nM | 0.16 nM | 0.44 nM | 0.18 nM
13 | NCCc1c[nH]c2ccc(OCc3ccccc3COc3ccc4[nH]cc(CCN)c4c3)cc12 | 4.3 nM | 1.7 nM | 2.07 nM | 1.5 nM
14 | NCCc1c[nH]c2ccc(OCCOc3ccc4[nH]cc(CCN)c4c3)cc12 | 14.3 nM | 2.5 nM | 4 nM | 1 nM
15 | NCCc1c[nH]c2ccc(OCC(=O)Nc3ccc(N4CCN(C(=O)COc5ccc6[nH]cc(CCN)c6c5)CC4)cc3)cc12 | 9.8 nM | 0.14 nM | 0.4 nM | 0.09 nM
16 | NCCc1c[nH]c2ccc(OCCCCCCOc3ccc4[nH]cc(CCN)c4c3)cc12 | 1.8 nM | 0.5 nM | 0.6 nM | 0.46 nM
